Measured values reported in patent US5256528A, “Magenta image-dye couplers of improved hue” (Eastman Kodak Company, priority 1992, dated 1993).
Each block holds one compound with its values, some of them ahead of it.

Key:
[1] = Absorption spectra of dye-containing processed films (λmax), C-41 process; type: physicochemical
Experimental: (§1) Dispersions of the comparative couplers B1-B3 and B8 and of the couplers of this invention M1-M3 were prepared by dissolving the coupler in the coupler solvent S1 plus the auxiliary solvent 2-(2-butoxyethoxy)ethyl acetate and then dispersing this oil phase in an aqueous solution of gelatin and surfactant using an ultrasonic probe. The dispersions were chilled and washed for 6 hr at 4° C. to remove the auxiliary solvent. The dispersions contained approximately 8.8% coupler, 4.4% S1 and 6% gelatin by weight.
(§2) The dispersions were coated at 1.04 mmole/sq m together with a silver bromoiodide emulsion on a transparent acetate support in the format shown below. Hardened film strips were exposed through a 0-4 neutral density stepwedge and daylight V and WRATTEN 9 filters and subjected to a standard C-41 process at 37.8° C. The process consists of 2.5 min in color developer, 4 min in a ferric EDTA/PDTA bleach solution, 2 min wash, 4 min fix and 2 min final wash. Photographic gamma values were obtained from the slopes of plots of status M green density vs. exposure for processed samples. Absorption spectra of the dye-containing processed films were measured at a density near 1.0 on a spectrophotometer and the wavelengths of maximum absorption (λ max values) were recorded.
(§3) BVSM* Hardener 0.06 g/sq m
(§4) Coupler Solvent S1 1/2 coupler laydown
(§5) Dispersions of couplers B3, M1 and M5 with S1 (1:0.5) were prepared and coated as in Example 2. Film strips of these coatings were exposed, processed and analyzed as in Example 2. λmax values and gamma values associated with these film compositions are listed in Table III. This series further illustrates the use of electron-withdrawing substituents to obtain magenta dyes of the proper hue.
(§6) Dispersions of the comparative couplers B4, B5 and B8 and the couplers of this invention M6-M11 were prepared and coated as in Example 2. The coupler solvent S1 was again used at a 1:0.5 coupler:S1 weight ratio. Film strips of the hardened coatings were exposed, processed and analyzed as in Example 2. Couplers B4 and M6-M8 have a strongly electron-withdrawing alkoxycarbonyl substituent in the R2 position and couplers B5 and M9-M11 have a strongly electron-withdrawing alkylsulfonyl group at R2. […] The couplers of this invention, M6-M11, which have strong electron-withdrawing groups in each ring, yield dyes having the desired bathochromic hues, as shown by the λmax values. The gamma values obtained with the couplers of this invention are suitably high to be useful in photographic materials, as indicated by comparison to the gamma obtained from the commercial coupler B8.
(§7) Dispersions of the comparison couplers B6 and B7, and of the couplers of this invention M12-M17, were prepared using the coupler solvent Sl as in Example 2. These were coated as in Example 2, and hardened film strips were exposed, processed and analyzed as in Example 2. The results obtained are summarized in Table V. In this example all of the couplers have sulfamoyl or alkylsulfonyl substituents in the R1 position and the R2 substituent on the 3-anilino ring is varied. Comparative couplers B6 and B7 have chloro substituents at R2, whereas M12-M17 of this invention have strong electron withdrawing R2 groups. […] The gamma values of the couplers of this invention are similar to those of the comparative couplers.

[2] = Unwanted blue light absorption of magenta dye in film (absorption spectra, FIGURE); type: physicochemical; settings: relative to dye derived from comparative coupler B5
Experimental: as §2
Dispersions of the comparative couplers B4, B5 and B8 and the couplers of this invention M6-M11 were prepared and coated as in Example 2. The coupler solvent S1 was again used at a 1:0.5 coupler:S1 weight ratio. Film strips of the hardened coatings were exposed, processed and analyzed as in Example 2. Couplers B4 and M6-M8 have a strongly electron-withdrawing alkoxycarbonyl substituent in the R2 position and couplers B5 and M9-M11 have a strongly electron-withdrawing alkylsulfonyl group at R2. […]

[3] = Photographic gamma (slope of status M green density vs. exposure), C-41 process
Experimental: as §1, §2, §3, §4, §5, §6, §7

[4] = Continued coupling in bleach, delta Dmin process B - process A; settings: Table VI
Experimental: (§8) Dispersions of the coupler B3 were prepared with coupler solvents S1 and C2, both at a 1:1 B3:coupler solvent weight ratio. Dispersions of coupler M1 were prepared with C2 at 1:1 and with C2 plus aniline A1 at a 1:0.8:0.2 M1:C2:A1 weight ratio. These dispersions were prepared by dissolving the coupler in a mixture of coupler solvent, aniline A1 (optional) and cyclohexanone. The coupler:cyclohexanone weight ratio was 1:3. This mixture was then added to an aqueous solution of gelatin and ALKANOL XC surfactant. The two-phase mixture was then passed through a colloid mill to disperse the coupler-containing oil phase in the aqueous phase in the form of small droplets. The dispersion was then chilled, noodled and washed to remove the auxiliary cyclohexanone solvent. The resulting dispersions contained approximately 2% by weight of coupler and 6% by weight of gelatin.
(§9) The dispersions were then coated on a transparent support together with a silver bromoiodide emulsion in the format shown below. Coatings were then exposed through a stepwedge and subjected to variants of the KODAK FLEXICOLOR (C-41) process described below. One set of film samples was processed with an acetic acid stop bath between the development and bleach steps (process A). A second set of films was processed without a stop bath and with the bleach pH adjusted to 6.0 instead of the normal 5.25 (process B). This is intended to simulate behavior in a "seasoned" bleach whose pH increases due to carry-over of base from the developer solution. The difference between Dmin values (densities obtained in unexposed portions of the films) between process A and process B are due to continued coupling between coupler and developer carried over into the bleach. Both the lack of a stop bath and the high bleach pH in process B aggravate continued coupling. It is desirable to minimize Dmin density and Dmin variability due to continued coupling. Since conditions similar to process B are encountered in simplified trade processing, it is desirable to minimize continued coupling, as measured by the delta Dmin of process B - process A. These delta Dmin values are listed in Table VI along with λmax values and gamma values (obtained from plots of status M green density versus exposure).
(§10) 2.6 g/sq m Gelatin + 1.75 weight % BVSME* Hardener
(§11) Coupler Solvent + or - A1 @ equal weight to coupler
(§12) 1.08 g/sq m Silver Emulsion
(§13) //////Cellulose Acetate Butyrate Support//////
or Standard C-41 Bleach II
2B Bleach II Adjusted to pH = 6.0
(§14) Also included in this comparison was a 1:1 dispersion of M1 plus C2 to which was added the DIR coupler D1 (shown above) at a M1:D1 weight ratio of 1:0.045.

[5] = Formaldehyde exposure test (loss of dye density obtainable on processing); settings: Table II, Example 3; 48 hr formaldehyde exposure, 60% RH; relative to water-glycerol only
Text: Prior examples of 3-anilino-1-phenyl-5-pyrazolone couplers that yield bathochromic dyes have been limited to four-equivalent couplers or to couplers with coupling-off groups other than arylthio or alkylthio groups. The four-equivalent couplers are not suitable for the practice of this invention because of their high propensity to react with formaldehyde or other hardeners. This can be illustrated by exposing coupler-containing films to formaldehyde and noting the changes in the dye density obtainable upon photographic processing. To obtain the data in Table II one set of film strips was suspended in a light-tight tank over a beaker containing 10 g of formaldehyde, and a solution of 14 g of water and 36 g of glycerol (60% RH) for 48 hr. A second set of strips was suspended for 48 hr over a water-glycerol solution without the beaker of formaldehyde. The strips were then exposed through a stepwedge, process (C-41) and the densities were measured. Values of the percent reduction in (Dmax-Dmin) for the samples exposed to formaldehyde relative to the samples exposed to water-glycerol only were determined.
Coatings of B8,B9 and M1 prepared as described in Example 2 were subjected to the formaldehyde test.

[6] = λmax with coupler solvents and addenda (KODAK FLEXICOLOR C-41 variants); type: physicochemical; settings: Table VI
Experimental: as §8, §9, §10, §11, §12, §13, §14

[7] = Photographic gamma with coupler solvents and addenda (KODAK FLEXICOLOR C-41 variants); settings: Table VI, no DIR coupler
Experimental: as §8
as §9, with “Both the lack of a stop bath and the high bleach pH in process B aggravate continued coupling. It is desirable to minimize Dmin density and Dmin variability due to continued coupling.” left out, “exposure). […]” for “exposure).”

[8] = Table IV, Example 5, coupler:S1 1:0.5
[9] = C2(0.8), aniline A1(0.2), no DIR coupler
[10] = C2(1.0), no aniline, DIR coupler D1(0.045)
[11] = C2(1.0), no aniline, no DIR coupler
[12] = Table I, Example 2, coupler:S1 1:0.5
[13] = Table III, Example 4, coupler:S1 1:0.5
[14] = S1(1.0), no aniline, no DIR coupler
[15] = Table V, Example 6, coupler solvent S1

λmax(nm) (+-0.5) [1, 8]: 551.0 nm
SMILES: CCCCCCCCCCCCS(=O)(=O)c1ccc(NC2=NN(c3c(Cl)cc(C#N)cc3Cl)C(=O)C2Sc2cc(C(C)(C)CC(C)(C)C)ccc2OCCCC)c(Cl)c1 (stereo not drawn) [Coupler M11]
unwanted blue light absorption at 480 nm [2]: less unwanted blue light absorption at 480 nm | Gamma [3, 8]: 3.3

λmax(nm) (+-0.5) [1, 12]: 550.5 nm | λmax(nm) [6, 9]: 549 nm | λmax(nm) [6, 10]: 549 nm | λmax(nm) [6, 11]: 549 nm
SMILES: CCCCCCCCCCCCNS(=O)(=O)c1ccc(NC2=NN(c3c(Cl)cc(S(=O)(=O)N4CCOCC4)cc3Cl)C(=O)C2Sc2cc(C(C)(C)CC(C)(C)C)ccc2OCCCC)c(Cl)c1 (stereo not drawn) [Coupler M1]
Delta Dmin Process B-A [4, 9]: 0.040 | Delta Dmin Process B-A [4, 10]: 0.088 | Delta Dmin Process B-A [4, 11]: 0.073 | % Density Loss after Formaldehyde Exposure [5]: 3% | Gamma [3, 13]: 4.4 | Gamma ([7]; C2(0.8), aniline A1(0.2)): 1.83

λmax(nm) (+-0.5) [1, 12]: 546.0 nm | λmax(nm) (+-0.5) [1, 13]: 546.5 nm | λmax(nm) [6, 11]: 544 nm | λmax(nm) [6, 14]: 548 nm
SMILES: CCCCCCCCCCCCNS(=O)(=O)c1ccc(NC2=NN(c3c(Cl)cc(Cl)cc3Cl)C(=O)C2Sc2cc(C(C)(C)CC(C)(C)C)ccc2OCCCC)c(Cl)c1 (stereo not drawn) [Coupler B3, reference compound]
Delta Dmin Process B-A [4, 11]: 0.071 | Delta Dmin Process B-A [4, 14]: 0.191 | Gamma [3, 12]: 4.7 | Gamma [3, 13]: 4.5 | Gamma ([7]; C2(1.0), no aniline): 1.78 | Gamma ([7]; S1(1.0), no aniline): 2.10

λmax(nm) (+-0.5) [1, 8]: 548.5 nm
SMILES: CCCCCCCCCCCCOC(=O)c1ccc(NC2=NN(c3c(Cl)cc(S(=O)(=O)N4CCOCC4)cc3Cl)C(=O)C2Sc2cc(C(C)(C)CC(C)(C)C)ccc2OCCCC)c(Cl)c1 (stereo not drawn) [Coupler M6]
Gamma [3, 8]: 3.7

λmax(nm) (+-0.5) [1, 12]: 542.0 nm
SMILES: CCCCCCCCCCCCNS(=O)(=O)c1ccc(NC2=NN(c3c(Cl)cccc3Cl)C(=O)C2Sc2cc(C(C)(C)CC(C)(C)C)ccc2OCCCC)c(Cl)c1 (stereo not drawn) [Coupler B2, reference compound]
Gamma [3, 12]: 5.3

λmax(nm) (+-0.5) [1, 15]: 551.0 nm
SMILES: CCCCCCCCCCCCS(=O)(=O)c1cc(Cl)c(N2N=C(Nc3ccc(S(=O)(=O)N4CCOCC4)cc3Cl)C(Sc3cc(C(C)(C)CC(C)(C)C)ccc3OCCCC)C2=O)c(Cl)c1 (stereo not drawn) [Coupler M15]
Gamma [3, 15]: 3.4

λmax(nm) (+-0.5) [1, 15]: 549.5 nm
SMILES: CCCCCCCCCCCCNS(=O)(=O)c1cc(Cl)c(N2N=C(Nc3ccc(S(=O)(=O)N4CCOCC4)cc3Cl)C(Sc3cc(C(C)(C)CC(C)(C)C)ccc3OCCCC)C2=O)c(Cl)c1 (stereo not drawn) [Coupler M12]
Gamma [3, 15]: 3.1

λmax(nm) (+-0.5) [1, 8]: 548.5 nm
SMILES: CCCCCCCCCCCCOC(=O)c1ccc(NC2=NN(c3c(Cl)cc(S(C)(=O)=O)cc3Cl)C(=O)C2Sc2cc(C(C)(C)CC(C)(C)C)ccc2OCCCC)c(Cl)c1 (stereo not drawn) [Coupler M7]
Gamma [3, 8]: 3.1
